According to the supplement of paper PMC10307832:

What was measured:
Test in all cases: relative viability (nuclei count vs DMSO), 5 days (fraction); higher = more cells survive
NCI-H1915 = system: NCI-H1915
Method in brief: (§1)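 Medians of duplicate plates are given as relative viability. That measure is the nuclei count in treated wells divided by the count in vehicle wells. Counts were taken on 4× images of lung cancer cell lines in 1536-well plates, 5 days after pin-tool dosing the day after seeding with one drug alone or a fixed anchor-drug dose plus five library-drug doses (not always all listed) in √10 steps.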

PC-14 = system: PC-14
Method in brief: as §1

HCC-366 = system: HCC-366
Method in brief: as §1

LXF-289 = system: LXF-289
Method in brief: as §1

HARA = system: HARA
Method in brief: as §1

NCI-H1793 = system: NCI-H1793
Method in brief: as §1

NCI-H1975 = system: NCI-H1975
Method in brief: as §1

NCI-H2405 = system: NCI-H2405
Method in brief: as §1

NCI-H460 = system: NCI-H460
Method in brief: as §1

HCC-15 = system: HCC-15
Method in brief: as §1

NCI-H441 = system: NCI-H441
Method in brief: as §1

NCI-H3122 = system: NCI-H3122
Method in brief: as §1

A-427 = system: A-427
Method in brief: as §1

PC-3 [JPC-3] = system: PC-3 [JPC-3]
Method in brief: as §1

NCI-H1755 = system: NCI-H1755
Method in brief: as §1

NCI-H596 = system: NCI-H596
Method in brief: as §1

NCI-H1437 = system: NCI-H1437
Method in brief: as §1

H3255 = system: H3255
Method in brief: as §1

NCI-H650 = system: NCI-H650
Method in brief: as §1

Q: O=C(O)CCCCC(CCSCc1ccccc1)SCc1ccccc1 (centres undefined) [CPI-613] + NC(=O)Nc1cc(-c2cccc(F)c2)sc1C(=O)N[C@H]1CCCNC1 [AZD7762] (partner 0.2 µM) was tested. Which relative viability (NCI-H1915; first compound 5 µM) did it give?
A: 0.684

Q: And the relative viability (NCI-H1915; first compound 15.81 µM)?
A: 0.639

Q: What about the relative viability (NCI-H1915; first compound 50 µM) of the same compound?
A: 0.627

Q: What about the relative viability (NCI-H1915; first compound 158.11 µM) of the same compound?
A: 0.535

Q: And the relative viability (NCI-H1915; first compound 500 µM)?
A: 0.303

Q: And the relative viability (PC-14; first compound 5 µM)?
A: 0.349

Q: And the relative viability (PC-14; first compound 15.81 µM)?
A: 0.252

Q: What about the relative viability (PC-14; first compound 50 µM) of the same compound?
A: 0.296

Q: And the relative viability (PC-14; first compound 158.11 µM)?
A: 0.256

Q: And the relative viability (PC-14; first compound 500 µM)?
A: 0.16

Q: And the relative viability (HCC-366; first compound 5 µM)?
A: 0.256

Q: What about the relative viability (HCC-366; first compound 15.81 µM) of the same compound?
A: 0.203

Q: And the relative viability (HCC-366; first compound 50 µM)?
A: 0.282

Q: And the relative viability (HCC-366; first compound 158.11 µM)?
A: 0.138

Q: And the relative viability (HCC-366; first compound 500 µM)?
A: 0.0061

Q: And the relative viability (LXF-289; first compound 5 µM)?
A: 1

Q: What about the relative viability (LXF-289; first compound 15.81 µM) of the same compound?
A: 1

Q: And the relative viability (LXF-289; first compound 50 µM)?
A: 1.03

Q: And the relative viability (LXF-289; first compound 158.11 µM)?
A: 0.722

Q: And the relative viability (LXF-289; first compound 500 µM)?
A: 0.774

Q: And the relative viability (HARA; first compound 5 µM)?
A: 0.37

Q: What about the relative viability (HARA; first compound 15.81 µM) of the same compound?
A: 0.0178

Q: What about the relative viability (HARA; first compound 50 µM) of the same compound?
A: 0.302

Q: What about the relative viability (HARA; first compound 158.11 µM) of the same compound?
A: 0.204

Q: What about the relative viability (HARA; first compound 500 µM) of the same compound?
A: 0.041

Q: And the relative viability (NCI-H1793; first compound 5 µM)?
A: 0.447

Q: What about the relative viability (NCI-H1793; first compound 15.81 µM) of the same compound?
A: 0.367

Q: What about the relative viability (NCI-H1793; first compound 50 µM) of the same compound?
A: 0.372

Q: What about the relative viability (NCI-H1793; first compound 158.11 µM) of the same compound?
A: 0.11

Q: What about the relative viability (NCI-H1793; first compound 500 µM) of the same compound?
A: 0.0077

Q: What about the relative viability (NCI-H1975; first compound 5 µM) of the same compound?
A: 0.734

Q: What about the relative viability (NCI-H1975; first compound 15.81 µM) of the same compound?
A: 0.682

Q: And the relative viability (NCI-H1975; first compound 50 µM)?
A: 0.581

Q: What about the relative viability (NCI-H1975; first compound 158.11 µM) of the same compound?
A: 0.666

Q: What about the relative viability (NCI-H1975; first compound 500 µM) of the same compound?
A: 0.677

Q: What about the relative viability (NCI-H2405; first compound 5 µM) of the same compound?
A: 0.755

Q: And the relative viability (NCI-H2405; first compound 15.81 µM)?
A: 0.63

Q: What about the relative viability (NCI-H2405; first compound 50 µM) of the same compound?
A: 0.736

Q: And the relative viability (NCI-H2405; first compound 158.11 µM)?
A: 0.557

Q: And the relative viability (NCI-H2405; first compound 500 µM)?
A: 0.235

Q: What about the relative viability (NCI-H460; first compound 5 µM) of the same compound?
A: 0.633

Q: What about the relative viability (NCI-H460; first compound 15.81 µM) of the same compound?
A: 0.529

Q: And the relative viability (NCI-H460; first compound 50 µM)?
A: 0.613

Q: What about the relative viability (NCI-H460; first compound 158.11 µM) of the same compound?
A: 0.418

Q: And the relative viability (NCI-H460; first compound 500 µM)?
A: 0.291

Q: And the relative viability (HCC-15; first compound 5 µM)?
A: 1.21

Q: And the relative viability (HCC-15; first compound 15.81 µM)?
A: 1.04

Q: And the relative viability (HCC-15; first compound 50 µM)?
A: 1.14

Q: And the relative viability (HCC-15; first compound 158.11 µM)?
A: 0.819

Q: What about the relative viability (HCC-15; first compound 500 µM) of the same compound?
A: 0.476

Q: What about the relative viability (NCI-H441; first compound 5 µM) of the same compound?
A: 1.09

Q: What about the relative viability (NCI-H441; first compound 15.81 µM) of the same compound?
A: 0.803

Q: And the relative viability (NCI-H441; first compound 50 µM)?
A: 1.39

Q: And the relative viability (NCI-H441; first compound 158.11 µM)?
A: 0.788

Q: And the relative viability (NCI-H441; first compound 500 µM)?
A: 0.0052

Q: And the relative viability (NCI-H3122; first compound 5 µM)?
A: 0.989

Q: What about the relative viability (NCI-H3122; first compound 15.81 µM) of the same compound?
A: 0.977

Q: And the relative viability (NCI-H3122; first compound 50 µM)?
A: 1.01

Q: What about the relative viability (NCI-H3122; first compound 158.11 µM) of the same compound?
A: 0.973

Q: And the relative viability (NCI-H3122; first compound 500 µM)?
A: 0.842

Q: And the relative viability (A-427; first compound 5 µM)?
A: 0.66

Q: And the relative viability (A-427; first compound 15.81 µM)?
A: 0.642

Q: What about the relative viability (A-427; first compound 50 µM) of the same compound?
A: 0.661

Q: What about the relative viability (A-427; first compound 158.11 µM) of the same compound?
A: 0.326

Q: And the relative viability (A-427; first compound 500 µM)?
A: 0.173

Q: What about the relative viability (PC-3 [JPC-3]; first compound 5 µM) of the same compound?
A: 0.777

Q: And the relative viability (PC-3 [JPC-3]; first compound 50 µM)?
A: 0.909

Q: And the relative viability (PC-3 [JPC-3]; first compound 158.11 µM)?
A: 0.464

Q: What about the relative viability (PC-3 [JPC-3]; first compound 500 µM) of the same compound?
A: 0.114

Q: And the relative viability (NCI-H1755; first compound 5 µM)?
A: 0.383

Q: And the relative viability (NCI-H1755; first compound 15.81 µM)?
A: 0.4

Q: What about the relative viability (NCI-H1755; first compound 50 µM) of the same compound?
A: 0.319

Q: And the relative viability (NCI-H1755; first compound 158.11 µM)?
A: 0.397

Q: What about the relative viability (NCI-H1755; first compound 500 µM) of the same compound?
A: 0.375

Q: What about the relative viability (NCI-H596; first compound 5 µM) of the same compound?
A: 1.16

Q: And the relative viability (NCI-H596; first compound 15.81 µM)?
A: 0.939

Q: And the relative viability (NCI-H596; first compound 50 µM)?
A: 1.11

Q: What about the relative viability (NCI-H596; first compound 158.11 µM) of the same compound?
A: 0.818

Q: And the relative viability (NCI-H596; first compound 500 µM)?
A: 0.0374

Q: And the relative viability (NCI-H1437; first compound 5 µM)?
A: 1.11

Q: And the relative viability (NCI-H1437; first compound 15.81 µM)?
A: 1.13

Q: And the relative viability (NCI-H1437; first compound 50 µM)?
A: 1.08

Q: What about the relative viability (NCI-H1437; first compound 158.11 µM) of the same compound?
A: 0.604

Q: And the relative viability (NCI-H1437; first compound 500 µM)?
A: 0.855

Q: And the relative viability (H3255; first compound 5 µM)?
A: 0.816

Q: And the relative viability (H3255; first compound 15.81 µM)?
A: 0.847

Q: What about the relative viability (H3255; first compound 50 µM) of the same compound?
A: 0.833

Q: And the relative viability (H3255; first compound 158.11 µM)?
A: 0.733

Q: And the relative viability (H3255; first compound 500 µM)?
A: 0.853

Q: What about the relative viability (NCI-H650; first compound 5 µM) of the same compound?
A: 1.01

Q: And the relative viability (NCI-H650; first compound 15.81 µM)?
A: 0.925

Q: What about the relative viability (NCI-H650; first compound 50 µM) of the same compound?
A: 1.03

Q: What about the relative viability (NCI-H650; first compound 158.11 µM) of the same compound?
A: 0.49

Q: What about the relative viability (NCI-H650; first compound 500 µM) of the same compound?
A: 0.655
